This is an account of results in article PMC7181131, “N-Pyrazinoyl Substituted Amino Acids as Potential Antimycobacterial Agents—the Synthesis and Biological Evaluation of Enantiomers” (Molecules, 2020).

SMILES strings stand for the structures. ≈ marks a conversion by molar mass, not a printed value. Like-named read-outs stand apart in the source and are kept apart here. A value given as a limit tells only on which side of the number the result lay.

In general, IC50 refers to the concentration at which inhibition is half-maximal.

Data set [1] deals with Mtb H37Ra ITM-M006710 (ATCC 9431). The data set can be described thus: Microplate Alamar Blue Assay (MABA) microdilution, Mtb H37Ra. The format is cell-based, Mycobacterium tuberculosis. The following applies: for MIC: Mycobacterium tuberculosis.
The subject of data set [2] is M. smegmatis DSM 43465 (ATCC 607). The data set can be described thus: Microplate Alamar Blue Assay (MABA) microdilution, M. smegmatis. Format: cell-based, Mycobacterium smegmatis.
Data set [3] has as its system Mycobacterium aurum DSM 43999 (ATCC 23366). The data set can be described thus: Microplate Alamar Blue Assay (MABA) microdilution, M. aurum. The format is cell-based. Background: The colour change of resazurin is a common sign of viable cells or microbes.
Data set [4] has as its system HepG2 cell line. The data set can be described thus: HepG2 cytotoxicity, CellTiter 96 (MTS) assay. Format: cell-based, human. The following applies: for IC50: Homo sapiens, read-out: HepG2 IC50.
For data set [5], the system named is Staphylococcus epidermidis CCM 4418 (ATCC 12228). Nature of the data set: Antibacterial microdilution broth method, SE. The format is cell-based. The following applies: 24 h, read-out: MIC SE. A general note: In broth dilution the organism is exposed to a series of concentrations in liquid medium.
Data set [6] concerns Candida albicans CCM 8320 (ATCC 24433). The data set can be described thus: Antifungal microdilution broth method, CA. Format: cell-based. The following applies: 24 h, read-out: MIC CA.
Data set [7] has as its system Candida krusei CCM 8271 (ATCC 6258). The data set can be described thus: Antifungal microdilution broth method, CK. Format: cell-based. The following applies: Pichia kudriavzevii, 24 h, read-out: MIC CK.
Data set [8] relates to Candida parapsilosis CCM 8260 (ATCC 22019). Nature of the data set: Antifungal microdilution broth method, CP. Format: cell-based. The following applies: Lodderomyces parapsilosis, 24 h, read-out: MIC CP.
Data set [9] deals with Candida tropicalis CCM 8264 (ATCC 750). The data set can be described thus: Antifungal microdilution broth method, CT. The format is cell-based. The following applies: 24 h, read-out: MIC CT.
The subject of data set [10] is Aspergillus fumigatus ATCC 204305. Nature of the data set: Antifungal microdilution broth method, AF. Format: cell-based. The following applies: ATCC204305, 48 h, read-out: MIC AF.
Data set [11] has as its system Aspergillus flavus CCM 8363. The data set can be described thus: Antifungal microdilution broth method, AFla. Format: cell-based. The following applies: CCM8363, read after 48 h (filamentous fungi), read-out: MIC AFla.
The test system of data set [12] is Lichtheimia corymbifera CCM 8077. The data set can be described thus: Antifungal microdilution broth method, LC. The format is cell-based. The following applies: CCM8077, 48 h, read-out: MIC LC.
Data set [13] concerns Trichophyton interdigitale CCM 8377 (ATCC 9533). Nature of the data set: Antifungal microdilution broth method, TI. The format is cell-based. The following applies: 48 h, read-out: MIC TI.
Another data set has as its system some G- bacteria. The data set can be described thus: Antibacterial microdilution broth method, strains not given. The following applies: read-out: MIC against some G- bacteria. The format is cell-based.
The subject of data set [14] is Klebsiella pneumoniae CCM 4415 (ATCC 10031). Nature of the data set: Antibacterial microdilution broth method, KP. The following applies: read after 24 h of incubation.
Data set [15] is described as follows: Solubility in the cultivation medium of the antibacterial and antifungal screening. The following applies: for solubility in the cultivation medium: antibacterial testing medium; for solubility in the medium: antifungal testing medium.
Data set [16] deals with Mycobacterium tuberculosis H37Rv CNCTC My 331/88 (ATCC 27294). Nature of the data set: Antimycobacterial pre-screening, microdilution broth, Mtb H37Rv. Format: cell-based. The following applies: Middlebrook 7H9 broth of declared pH 6.6.
Data set [17] deals with M. kansasii CNCTC My 235/80 (ATCC 12478). Nature of the data set: Antimycobacterial pre-screening, microdilution broth, M. kansasii. The format is cell-based. The following applies: Mycobacterium kansasii, ATCC12478; Middlebrook 7H9 broth of declared pH 6.6.
The test system of data set [18] is M. avium ssp. avium CNCTC My 80/72 (ATCC 15769). The data set can be described thus: Antimycobacterial pre-screening, microdilution broth, M. avium. Format: cell-based. The following applies: Mycobacterium avium, ATCC15769; Middlebrook 7H9 broth of declared pH 6.6.
The subject of data set [19] is Mycobacterium tuberculosis H37Rv CNCTC My 331/88 (ATCC 27294). On the set-up: method as in doi:10.3184/030823407×200001. The following applies: study by Pinheiro et al. ref 32; cited from earlier work.
Data set [20] concerns HepG2 cell line. Set-up: method as in PMID 23357778. The following applies: converted to µM based on the literature value 1184.3 ± 120.2 µg/mL ref 62; cited from earlier work.
The mark [21] stands for this setting: pH 6.6, read-out: MIC Mtb H37Ra.
Where [22] appears, read: pH 6, calculated from µg/mL, read-out: MIC Mtb H37Ra.
Setting [23] is: Mycolicibacterium smegmatis, pH 6, read-out: MIC M. smegmatis µg/mL.
Where [24] appears, read: Mycolicibacterium smegmatis, pH 6.6, read-out: MIC M. smegmatis.
[25] abbreviates: Mycolicibacterium aurum, pH 6, read-out: MIC M. aurum µg/mL.
[26] abbreviates: Mycolicibacterium aurum, pH 6.6, read-out: MIC M. aurum.
Setting [27] is: Mycolicibacterium smegmatis, pH 6; read-out: MIC M. smegmatis.
The mark [28] stands for this setting: Mycolicibacterium smegmatis, pH 6.6; read-out: MIC M. smegmatis.
[29] abbreviates: Mycolicibacterium aurum, pH 6; read-out: MIC M. aurum.
Setting [30] is: Mycolicibacterium aurum, pH 6.6; read-out: MIC M. aurum.

With `CCOC(=O)[C@H](C)NC(=O)c1cnccn1` [PC-L-Ala-Et, ethyl (pyrazine-2-carbonyl)-L-alaninate], the “times lower MIC of the ethyl ester compared to the free acid” value in data set [1] (Mtb H37Ra, pH 6, PC-L-Ala-Et vs PC-L-Ala) is on record as “at least 64 times”. Further, the MIC in data set [1] (pH 6) is 3.91 µg/mL; in data set [1] (pH 6, read-out: MIC Mtb H37Ra), 3.91 µg/mL; in data set [1] (setting [21]), ≥ 500 µg/mL; in data set [1] (pH 6, Table 4, read-out: Mtb pH 6 MIC), 18 µM; in data set [1] (setting [22]), 17.5 µM; in data set [2] (setting [23]) it was ≥ 125 µg/mL. For the same compound, the MIC in [2] (setting [24]) is ≥ 500 µg/mL; in data set [3] (setting [25]), ≥ 125 µg/mL; in [3] (setting [26]), ≥ 500 µg/mL; in data set [5], 250 µM (≈ 55.8 µg/mL); in data set [6] it was > 500 µM; in [7], > 500 µM. Moreover, the MIC was > 500 µM in [8]; > 500 µM in data set [9]; > 500 µM in [10]; > 500 µM in data set [11]; > 500 µM in data set [12]; 500 µM (≈ 112 µg/mL) in data set [13]. Moreover, in the data set on some G- bacteria, the MIC is 125 µM (≈ 27.9 µg/mL). For the same compound, the “HepG2 IC50” value in the data set with HepG2 cell line [4] (24 h incubation, CellTiter 96) is given as “above the tested range”. In the data set on HepG2 cell line [4] (HepG2, 24 h incubation, CellTiter 96), the IC50 was > 1 mM. Besides, the “MIC KP” value in data set [14] was > 500 µM.
As for `CC[C@H](C)[C@H](NC(=O)c1cnccn1)C(=O)OC` [PC-L-Ile-Me, methyl (pyrazine-2-carbonyl)-L-isoleucinate], the MIC was 250 µg/mL in data set [1] (pH 6); 250 µg/mL in [1] (pH 6, read-out: MIC Mtb H37Ra); ≥ 500 µg/mL in [1] (setting [21]); 995 µM in data set [1] (setting [22]); ≥ 500 µg/mL in data set [2] (setting [27]); ≥ 500 µg/mL in [2] (setting [28]). The MIC in [3] (setting [29]) and in [3] (setting [30]) was ≥ 500 µg/mL throughout. In addition, the “solubility in the cultivation medium” value in [15] is reported as “insoluble”. In addition, the “solubility in the medium” value in [15] is reported as “insoluble”.
With `C=C(NC(=O)c1cnccn1)C(=O)OC` [PC-MeAcr, methyl 2-(pyrazine-2-carboxamido)acrylate], the MIC in [1] (pH 6) was 62.5 µg/mL; in data set [1] (pH 6, read-out: Mtb pH 6 MIC) it was 302 µM; in [1] (pH 6, read-out: MIC Mtb H37Ra), 62.5 µg/mL; in [1] (setting [21]) it was 15.6 µg/mL; in data set [1] (setting [22]), 302 µM; in data set [2] (setting [23]) it was ≥ 125 µg/mL. For the same compound, the MIC in data set [2] (setting [24]) was 31.2 µg/mL (≈ 151 µM); in [3] (setting [25]) it was 62.5 µg/mL (≈ 302 µM); in data set [3] (setting [26]) it was 62.5 µg/mL (≈ 302 µM); in [16], 50 µg/mL (≈ 241 µM); in data set [17] it was 100 µg/mL (≈ 483 µM); in data set [18] it was > 100 µg/mL. In addition, the MIC in data set [5], in data set [6], in data set [7], in [8], in data set [9] and in data set [10] was > 125 µM each time. The MIC in data set [11], in data set [12] and in data set [13] was > 125 µM in each case. For the same compound, in the data set on HepG2 cell line [4] (HepG2, 24 h), the half-maximal inhibitory concentration (IC50) is > 0.5 mM. Also, in [19], the “MIC on Mtb H37Rv” value is 50 µg/mL (≈ 241 µM).
For `COC(=O)C[C@@H](NC(=O)c1cnccn1)C(=O)OC` [PC-D-Asp-diMe, dimethyl (pyrazine-2-carbonyl)-D-aspartate], the MIC was ≥ 125 µg/mL in [1] (pH 6); ≥ 125 µg/mL in data set [1] (pH 6, read-out: MIC Mtb H37Ra); ≥ 125 µg/mL in data set [1] (setting [21]); ≥ 468 µM in [1] (setting [22]); ≥ 125 µg/mL in data set [2] (setting [27]); ≥ 125 µg/mL in data set [2] (setting [24]). The MIC in data set [3] (setting [29]) and in [3] (setting [26]) was ≥ 125 µg/mL in each case. Moreover, the “solubility in the cultivation medium” value in data set [15] is recorded as “insoluble”. Also, the “solubility in the medium” value in data set [15] is “insoluble”.
Consider `NC(=O)c1cnccn1` [PZA, pyrazinamide, reference compound], for which the MIC in data set [1] (pH 6, read-out: Mtb pH 6 MIC) is 31.8 µM; in data set [1] (pH 6, read-out: MIC Mtb H37Ra), < 3.91 µg/mL; in data set [1] (setting [21]), ≥ 500 µg/mL; in data set [1] (setting [22]) it was < 31.8 µM; in data set [2] (setting [27]), ≥ 500 µg/mL; in data set [2] (setting [28]) it was ≥ 500 µg/mL. The MIC was 250 µg/mL (≈ 2030 µM) in [3] (setting [29]) and ≥ 500 µg/mL in data set [3] (setting [30]). For the same compound, the half-maximal inhibitory concentration (IC50) in the data set with HepG2 cell line [20] is 9620 µM.
With `CC[C@@H](C)[C@@H](NC(=O)c1cnccn1)C(=O)OC` [PC-D-Ile-Me, methyl (pyrazine-2-carbonyl)-D-isoleucinate], the MIC is 250 µg/mL in data set [1] (pH 6); 250 µg/mL in data set [1] (pH 6, read-out: MIC Mtb H37Ra); ≥ 500 µg/mL in data set [1] (setting [21]); 995 µM in data set [1] (setting [22]); 250 µg/mL (≈ 995 µM) in data set [2] (setting [27]); ≥ 500 µg/mL in data set [2] (setting [28]). In addition, the MIC is 250 µg/mL (≈ 995 µM) in data set [3] (setting [29]) and ≥ 500 µg/mL in data set [3] (setting [30]). For the same compound, in [15], the “solubility in the cultivation medium” value was “insoluble”. The “solubility in the medium” value in [15] is on record as “insoluble”.
